Measured values reported in patent US20110020460A1, “GPR 119 MODULATORS” (Pfizer Inc., priority 2009, published 2011).
“And” between values parts separate entries of the source, which are not always exact repeats. Identical values can stand only once.

Key:
[1] = biological target: T1, human GPR119 (Homo sapiens, UniProt Q8TDV5); assay: cAMP HTRF functional assay (hGPR119 HEK-CRE beta-lactamase cells); format: cell-based; conditions: one value per run; for Intrinsic Activity* (cAMP) / Emax: percent of maximal activity relative to standard GPR119 agonist (WO2005121121) at 10 μM; for Emax: read-out: Intrinsic Activity* (cAMP); for EC50: hGPR119 HEK-CRE beta-lactamase cells, HTRF cAMP
T1 construct: host or cells: HEK293-CRE-beta-lactamase
T1 sequence (Q8TDV5 1-335): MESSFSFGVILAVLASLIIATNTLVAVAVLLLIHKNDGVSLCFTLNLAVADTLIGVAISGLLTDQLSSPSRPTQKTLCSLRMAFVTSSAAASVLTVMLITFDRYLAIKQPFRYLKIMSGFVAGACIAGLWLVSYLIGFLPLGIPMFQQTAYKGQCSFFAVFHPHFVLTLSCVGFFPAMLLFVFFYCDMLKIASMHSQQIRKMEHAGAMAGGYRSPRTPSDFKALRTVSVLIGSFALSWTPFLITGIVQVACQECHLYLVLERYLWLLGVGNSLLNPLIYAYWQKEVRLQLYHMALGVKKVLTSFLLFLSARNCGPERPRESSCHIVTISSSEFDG
Protocol: GPR119 agonist activity was also determined with a cell-based assay utilizing an HTRF (Homogeneous Time-Resolved Fluorescence) cAMP detection kit (cAMP dynamic 2 Assay Kit; Cis Bio cat #62AM4PEC) that measures cAMP levels in the cell. The method is a competitive immunoassay between native cAMP produced by the cells and the cAMP labeled with the dye d2. The tracer binding is visualized by a Mab anti-cAMP labeled with Cryptate. The specific signal (i.e. energy transfer) is inversely proportional to the concentration of cAMP in either standard or sample.
Following 30 minutes incubation at room temperature, 5 microL of labeled d2 cAMP and 5 microL of anti-cAMP antibody (both diluted 1:20 in cell lysis buffer; as described in the manufacturers assay protocol) were added to each well of the assay plate. […] Raw data were converted to nM cAMP by interpolation from a cAMP standard curve (as described in the manufacturer's assay protocol) and EC50 determinations were made from an agonist-response curves analyzed with a curve fitting program using a 4-parameter logistic dose response equation.

[2] = biological target: T2, human GPR119 (Homo sapiens, UniProt Q8TDV5); assay: beta-arrestin functional assay (DiscoverX PathHunter U2OS hGPR119 beta-arrestin cells); format: cell-based; conditions: for EC50: read-out: Human B-arrestin Functional EC50; for Emax: U2OS, read-out: Intrinsic Activity* (B-arrestin)
T2 construct: host or cells: U2OS
Protocol: GPR119 agonist activity was also determined with a cell-based assay utilizing DiscoverX PathHunter β-arrestin cell assay technology and their U2OS hGPR119 β-arrestin cell line (DiscoverX Cat #93-0356C3). In this assay, agonist activation is determined by measuring agonist-induced interaction of […] with activated GPR119. A small, 42 amino acid enzyme fragment, called ProLink was appended to the C-terminus of GPR119. Arrestin was fused to the larger enzyme fragment, termed EA (Enzyme Acceptor). Activation of GPR119 stimulates binding of arrestin and forces the complementation of the two enzyme fragments, resulting in formation of a functional β-galactosidase enzyme capable of hydrolyzing substrate and generating a chemiluminescent signal.
EC50 determinations were made from an agonist-response curves analyzed with a curve fitting program using a 4-parameter logistic dose response equation.
T2 sequence (P32121 whole entry partner, one chain of several): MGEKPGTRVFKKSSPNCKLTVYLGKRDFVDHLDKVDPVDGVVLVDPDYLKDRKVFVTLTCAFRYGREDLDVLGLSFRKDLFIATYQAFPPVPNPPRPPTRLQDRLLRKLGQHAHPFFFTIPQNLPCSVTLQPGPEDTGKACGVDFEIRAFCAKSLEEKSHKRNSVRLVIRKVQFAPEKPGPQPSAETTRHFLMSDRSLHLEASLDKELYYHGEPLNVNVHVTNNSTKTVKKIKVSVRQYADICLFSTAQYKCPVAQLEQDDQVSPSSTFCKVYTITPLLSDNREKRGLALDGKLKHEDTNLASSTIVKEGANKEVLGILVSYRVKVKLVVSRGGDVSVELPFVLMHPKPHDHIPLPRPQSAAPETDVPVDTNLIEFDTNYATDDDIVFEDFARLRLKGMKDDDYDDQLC

[3] = biological target: T1, human GPR119; assay: GPR119 radioligand binding assay ([3H]-Compound A or [3H]-Compound B, HEK 293FT membranes); conditions: Ki from IC50 by Cheng-Prusoff; one value per run; read-out: Human Binding Ki
Protocol: Cells were harvested via centrifugation (3,000×g, 10 minutes), washed once on DPBS (minus Ca++/Mg++), resuspended in 0.25M sucrose, 25 mM HEPES, 0.5 mM EDTA, pH 7.4 and frozen at −80 degrees Celsius.
The frozen cells were thawed on ice and centrifuged at 700×g (1400 rpm) for 10 minutes at 4 degrees Celsius. The cell pellet was resuspended in 20 mL phosphate-buffered saline, and centrifuged at 1400 rpm for 10 minutes. […] Cells were then lysed with 15 gentle strokes of a tight-fitting glass Dounce homogenizer. The homogenate was centrifuged at 1000×g (2200 rpm) for 10 minutes at 4 degrees Celsius. The supernatant was transferred into fresh centrifuge tubes on ice. The cell pellet was resuspended in homogenization buffer, and centrifuged again at 1000×g (2200 rpm) for 10 minutes at 4 degrees Celsius after which the supernatant was removed and the pellet resuspended in homogenization buffer. […] The solution was then centrifuged at 25,000×g (15000 rpm) for 20 minutes at 4 degrees Celsius, the supernatant was discarded, and the pellet was resuspended in fresh homogenization buffer (minus Benzonase and MgCl2). After repeating the 25,000×g centrifugation step, the final membrane pellet was resuspended in homogenization buffer and frozen at −80 degrees Celsius.
2 microL of each dilution was added to appropriate wells of a 96-well plate (each concentration in triplicate).
Membranes expressing GPR119 were thawed and diluted to a final concentration of 20 μg/100 microL per well in Binding Buffer, and 100 microL of diluted membranes were added to each well of 96-well plate.
The plate was incubated for 60 minutes w/shaking at room temperature (approximately 25 degrees Celsius). […] Filters were then washed six times using washing buffer (50 mM Tris-HCl, pH 7.5 kept at 4 degrees Celsius). The filter plates were then air-dyed at room temperature overnight.
IC50 determinations were made from competition curves, analyzed with a proprietary curve fitting program (SIGHTS) and a 4-parameter logistic dose response equation. Ki values were calculated from IC50 values, using the Cheng-Prusoff equation.

[4] = biological target: T1, human GPR119; assay: beta-lactamase reporter functional assay (hGPR119 HEK293-CRE beta-lactamase cells); format: cell-based; conditions: one value per run; for EC50: hGPR119 HEK293-CRE beta-lactamase cells, read-out: Human B-lactamase Functional EC50; for Intrinsic Activity* (B-lactamase) / Emax: percent of maximal activity relative to standard GPR119 agonist (WO2005121121) at 10 microM; for Emax: read-out: Intrinsic Activity* (B-lactamase)
Protocol: The assay for GPR119 agonists utilizes a cell-based (hGPR119 HEK293-CRE beta-lactamase) reporter construct where agonist activation of human GPR119 is coupled to beta-lactamase production via a cyclic AMP response element (CRE). GPR119 activity is then measured utilizing a FRET-enabled beta-lactamase substrate, CCF4-AM (Live Blazer FRET-B/G Loading kit, Invitrogen cat #K1027). […] After 4 hours the plating medium was removed and replaced with 40 microL of assay medium (Assay medium is plating medium without potassium clavulanate and HIFBS). Varying concentrations of each compound to be tested was then added in a volume of 10 microL (final DMSO≦0.5%) and the cells were incubated for 16 hours at 37 degrees Celsius in a humidified environment containing 5% carbon dioxide. Plates were removed from the incubator and allowed to equilibrate to room temperature for approximately 15 minutes. 10 microL of 6×CCF4/AM working dye solution (prepared according to instructions in the Live Blazer FRET-B/G Loading kit, Invitrogen cat #K1027) was added per well and incubated at room temperature for 2 hours in the dark. Fluorescence was measured on an EnVision fluorimetric plate reader, excitation 405 nm, emission 460 nm/535 nm. EC50 determinations were made from agonist-response curves analyzed with a curve fitting program using a 4-parameter logistic dose-response equation.

[5] = U2OS hGPR119 beta-arrestin cells, one value per run
[6] = percent of maximal activity relative to standard GPR119 agonist (WO2005121121) at 10 microM, one value per run
[7] = **curve was extrapolated to 100% to calculate an EC50

| Compound | Intrinsic Activity* (cAMP) [1] | Emax [1] [%] | EC50 [2, 5] [nM] | Emax [2, 6] [%] | Ki [3] | EC50 [4] | Intrinsic Activity* (B-lactamase) [4] | Emax [4] [%] | EC50 [1] | EC50 [2, 7] [nM] | Emax [2, 7] [%] |
| --- | --- | --- | --- | --- | --- | --- | --- | --- | --- | --- | --- |
| CC(C)OC(=O)N1CCC(n2ncc(COc3ccc(-n4cnnn4)cc3F)c2C#N)CC1 [Example 3, Isopropyl 4-(5-cyano-4-{[2-fluoro-4-(1H-tetrazol-1-yl)phenoxy]-methyl}-1H-pyrazol-1-yl)piperidine-1-carboxylate] | 91% and 74% and 79% and 84% | 86 | 4 | 111 | 5 nM and 10 nM and 37 nM | 8 nM and 11 nM and 6 nM | 105% and 96% | 98 |  |  |  |
| CC(C)OC(=O)N1CCC(n2ncc(COc3ccc(C#N)cc3F)c2C#N)CC1 [Example 8, Isopropyl 4-{5-cyano-4-[(4-cyano-2-fluorophenoxy)methyl]-1H-pyrazol-1-yl}piperidine-1-carboxylate] | 75% and 74% | 89 | 16 | 80 |  | 20 nM and 39 nM and 64 nM | 102% and 94% | 100 | 9 nM and 6 nM and 7 nM |  |  |
| CC1(OC(=O)N2CCC(n3ncc(COc4cc(F)ccc4F)c3C#N)CC2)CC1 [Example 13, 1-Methylcyclopropyl 4-{5-cyano-4-[(2,5-difluorophenoxy)methyl]-1H-pyrazol-1-yl}piperidine-1-carboxylate] | 87% | 95 | 217 | 119 | 149 nM |  |  |  | 180 nM and 112 nM |  |  |
| CC1(OC(=O)N2CCC(n3ncc(COc4cccc(F)c4F)c3C#N)CC2)CC1 [Example 14, 1-Methylcyclopropyl 4-{5-cyano-4-[(2,3-difluorophenoxy)methyl]-1H-pyrazol-1-yl}piperidine-1-carboxylate] | 78% | 74 | 495 | 109 | 723 nM |  |  |  | 436 nM and 494 nM |  |  |
| CC1(OC(=O)N2CCC(n3ncc(COc4ccc(C(N)=O)cc4F)c3C#N)CC2)CC1 [Example 15, 1-Methylcyclopropyl 4-{4-[(4-carbamoyl-2-fluorophenoxy)methyl]-5-cyano-1H-pyrazol-1-yl}piperidine-1-carboxylate] | 102% and 112% and 131% |  | 63 | 104 | 268 nM and 160 nM |  |  |  | 198 nM and 106 nM and 129 nM |  |  |
| CC1(OC(=O)N2CCC(n3ncc(COc4ccc(C(N)=O)cc4)c3C#N)CC2)CC1 [Example 16, 1-Methylcyclopropyl 4-{4-[(4-carbamoylphenoxy)methyl]-5-cyano-1H-pyrazol-1-yl}piperidine-1-carboxylate] | 102% and 119% | 105 | 472 |  |  |  |  |  | 204 nM and 165 nM and 316 nM | 420 | 100 |
| CC1(OC(=O)N2CCC(n3ncc(COc4ccc(C#N)cc4)c3C#N)CC2)CC1 [Example 17, 1-Methylcyclopropyl 4-(5-cyano-4-((4-cyanophenoxy)methyl)-1H-pyrazol-1-yl)piperidine-1-carboxylate] | 91% | 95 | 161 | 67 |  |  |  |  | 39 nM and 26 nM |  |  |
| CC1(OC(=O)N2CCC(n3ncc(COc4c(F)ccc(F)c4F)c3C#N)CC2)CC1 [Example 31, 1-Methylcyclopropyl 4-{5-cyano-4-[(2,3,6-trifluorophenoxy)methyl]-1H-pyrazol-1-yl}piperidine-1-carboxylate] | 109% | 107 | 155 | 92 | 462 nM |  |  |  | 56 nM and 52 nM |  |  |
| CC(C)OC(=O)N1CCC(n2ncc(COc3ccc(-c4nccn4C)cc3F)c2C#N)CC1 [Example 33, Isopropyl 4-(5-cyano-4-{[2-fluoro-4-(1-methyl-1H-imidazol-2-yl)phenoxy]methyl}-1H-pyrazol-1-yl)piperidine-1-carboxylate] | 92% | 85 |  |  |  |  |  |  | 244 nM and 274 nM | 1330 | 100 |
| Cc1nc(S(C)(=O)=O)ccc1NCc1cnn(C2CCN(C(=O)OC(C)C)CC2)c1C#N [Example 37, Isopropyl 4-[5-cyano-4-({[2-methyl-6-(methylsulfonyl)pyridin-3-yl]amino}methyl)-1H-pyrazol-1-yl]piperidine-1-carboxylate] |  | 56 |  |  | 416 nM | 328 nM and 805 nM | 105% | 114 | 1160 nM |  |  |
